Experimental data taken from US10400010B2, “Structure-based peptide inhibitors of P53 aggregation as a new approach to cancer therapeutics” (THE REGENTS OF THE UNIVERSITY OF CALIFORNIA, priority 2013, dated 2019).
Entries after “also recorded” stand apart in the source; their conditions may differ.

Legend:
[1] = system: cancer cells bearing misfolded/aggregation-prone mutant p53; experiment: Cell viability, standard MTS assay, 2D culture; assay type: cell-based; settings: 24 hours
Experimental: (§1) B. and C. show one representative case of primary cells from ovarian cancer.
INH-1R caused cell death in a dose dependent manner with less than 50% of cancer cells surviving after only 24 hours of treatment with a dose of 10 μM in a 2D culture system as detected by a standard MTS assay (FIG. 7A). […] In this case cells were plated in 1:1 mixture of PrEGM:matrigel. After cell layer solidified, cells were overlaid with warm PrEGM media containing either the inhibitor or a scrambled control peptide at concentration ranging from 0.1 to 10 μM for 5 to 7 days.

[2] = Serum concentration by MRM mass spectrometry (pharmacokinetic profile); assay type: in vivo, Nude mice
Experimental: Nude mice were injected in the flank with OVCAR-3 cells and the resulting xenografts were allowed to grow for two weeks. The mice were then treated for three days via IP with 15 mg/kg of INH-1R CPP peptide or scrambled control peptide. They were divided in groups of two and sacrificed at 1, 2, 4, 8, 12 and 24 hours post final peptide injection. Two naïve mice were sacrificed before treatment to obtain a reference value. Peak serum concentration of INH-1R CPP (as well as control peptide) was detected at 1 hour post injection. Average of two mice are shown.
The peptide concentration decreased to approximately 0.3 μM 2 hours post infusion, and remained stable for up to 12 hours (FIG. 10). Given the relative stability of the peptide in serum, IV administration is an acceptable alternative route of administration.

[3] = target: T1, p53 aggregation (segment p53252-258, LTIITLE) (Homo sapiens, UniProt P04637); experiment: In vitro Thioflavin T aggregation assay; assay type: biochemical; settings: different concentrations, down to molar ratio 1 inhibitor to 10 p53 molecules
T1 construct: made in house; host or cells: chemical synthesis
From the text: The aggregation of p53 is monitored via Thioflavin T assay: an increase in Thioflavin T fluorescence is detected over time due to the formation of increasing amounts of amyloid to which the dye can specifically bind. […] The sequence of this segment, LTIITLE, is SEQ ID NO: 21.
One representative in vitro assay is the thioflavin T assay shown in FIG. 3 (Naiki, H., Higuchi, K., Hosokawa, M., and Takeda, T. (1989) Fluorometric determination of amyloid fibrils in vitro using the fluorescent dye, thioflavine T. Anal. Biochem., 177, 244-249). The assay can be performed using a target sequence peptide, such as LTIITLE (SEQ ID NO: 21), or it can be performed using full-length p53 (such as recombinant p53). In both cases, the peptide (e.g. LTIITLE) (SEQ ID NO: 21) or the p53 is placed in solution with thioflavin T and increasing concentrations of inhibitor. The assay is performed in a multiwall plate (e.g. a 384 well plate). This dye is amyloid specific and is only fluorescent when bound to amyloid aggregates. The fluorescence is measured over time, e.g. with a plate reader. Inhibition is detected as a delay in the onset of aggregation and/or less total amount of aggregates formed.
The designed inhibitors were synthesized and tested in an in vitro Thioflavin T aggregation assay (FIG. 3).

[4] = system: cancer cell lines (OVCAR-3, CAOV-3, WiDr, Detroit 562) and primary cells from ovarian cancer patients; experiment: Cell entry and co-localization of FITC labeled inhibitor by fluorescence microscopy; assay type: cell-based, human; settings: 24 hours
From the text: INH-1R CPP was covalently linked to a FITC fluorescent label and added to different cancer cell lines or primary cells directly obtained from ovarian cancer patients (as depicted here). […] The cell nuclei are stained with Hoechst 33342 (blue), while p53 is recognized by an anti-p53 antibody and stained in red. […] Protein aggregates are stained with the commercially available OC antibody (in red).
To render the inhibitors cell permeable, the inventors fused the peptide-inhibitor panel to a nine-residue poly arginine tag through a three-residue linker, of sequence RPI, derived from endogenous p53 sequence. To confirm their ability to enter cells, the cell penetrating INH-1R inhibitor was linked to a FITC moiety in order to detect the intracellular localization of the probe by fluorescence microscopy (FIG. 4). We treated different cancer cell lines, including but not limited to OVCAR-3, CAOV-3, WiDr, Detroit 562 as well as primary cells derived from cancer patients with the FITC labeled inhibitor for 24 hours. After extensive washes to remove unbound inhibitors, the cells were fixed in formaldehyde and p53 was stained using a commercially available p53 antibody. […] Additionally, the inhibitor was found co-localized with protein aggregates as stained by the conformation specific antibody OC (Kayed et al, 2007, FIG. 4B).

MCF-7 (WT p53) = experiment: p53 re-localization in WT p53 control cells; assay type: cell-based; settings: WT p53 bearing cells MCF 7
From the text: The structure-guided, rationally designed p53 amyloid inhibitors of the invention specifically target those cancer cells bearing p53 molecules having an aberrant conformation (e.g. aggregated or misfolded p53). […] We then tested the inhibitor on established cancer cell lines as well as on primary cells derived from serous ovarian cancer patients in order to confirm the clinical relevance of our findings. Our inhibitor is designed to specifically target those tumor cells expressing an altered misfolded form of p53 and should have no effect on cells bearing functional, properly folded p53 or aggregation-incompetent p53 mutants. To confirm this, we included several controls. Three established cell lines, one bearing WT p53 (MCF-7) and two which were previously characterized for their p53 aggregation status, one with a non-aggregating mutation (WiDr) and one with a p53 aggregation prone mutation (Detroit 562), were used as negative and positive controls. One of the effects of the inhibitor was to cause re-localization of p53 from the cytosolic compartment to the nucleus (FIG. 5).

[5] = system: stable cell line derived from an ovarian cancer tumor (PA40 cells); experiment: p53 re-localization and refolding, DO-1 and PAb240 antibody stain; assay type: cell-based
From the text: A stable cell line derived from an ovarian cancer tumor is stained with the commercially available DO-1 antibody which recognizes any p53, irrespective of its structural state. […] The PAb240 commercial antibody recognizes misfolded p53, therefore loss of PAb240 antigeneicity reflects a change in the p53 population from misfolded to properly folded, functionally capable protein.
(§2) Properly folded p53 is rapidly degraded in cells as a control mechanism. Misfolded/aggregated p53 cannot be efficiently targeted for degradation therefore protein levels are high in the absence of the inhibitor. This is additional evidence of the ability of the INH-1R to generate a population of folded p53.

OVCAR-3 cell lysates = experiment: p53 levels in cell lysates by Western Blot; assay type: cell-based; settings: 0, 1, 5 or 10 μM, 24 hours
From the text: The properly folded p53 (see FIG. 6) can now be degraded as is WT p53. The hyperstability due to misfolding/aggregation is lost, and the protein turnover is fast.
as §2

[6] = system: primary cells from ovarian cancer; experiment: Apoptosis (AnnexinV stain) and proliferation (Ki67 stain); assay type: cell-based; settings: increasing dosage
From the text: as §1

OVCAR-3 cells [7] = experiment: Apoptosis and necrosis, combined Hoechst/PI/YO-PRO-1 stain; assay type: cell-based; settings: 24 hours
Experimental: OVCAR-3 cells were treated for 24 hours with the indicated concentrations of either INH-1R CPP or a scrambled inhibitor sequence. Hoechst (blue) stains all nuclei while YO-PRO-1 (green) only stains apoptotic cells and propidium iodide (red) stains late apoptotic/necrotic cells.

OVCAR-3 cells [8] = experiment: Cell death by FACS (cell size and granularity); assay type: cell-based; settings: 10 μM, 24 hours
Experimental: Cells treated for 24 hours with either INH-1R or a control peptide were trypsinized and analyzed by FACS.

[9] = system: p53 target genes p21 and Mdm2; experiment: Up-regulation of p53 target genes by QPCR or RNAseq; assay type: cell-based; settings: tumor cells with p53 misfolding/aggregating mutations
From the text: Specificity and efficacy of INH-1R CPP was confirmed by up-regulation of p53 target genes only in tumor cells containing p53 misfolding/aggregating mutations.

[10] = system: OVCAR-3 cells bearing the aggregation prone p53 R248Q mutation (xenograft); experiment: OVCAR-3 xenograft tumor proliferation in vivo; set-up: species or system NOD/SCID mice
Experimental: A. Images of the xenografts from mice (n=3 for each group, one mouse had 2 xenografts) treated with INH-1R CPP, a scrambled peptide control, or vehicle for 14 days. […] C. Tumor volume was estimated daily.
In our in vivo studies, we attempted to mimic a post-surgical debulking situation in which patients with minimal residual tumor mass are administered chemotherapy. NOD/SCID mice were injected subcutaneously with OVCAR-3 cells bearing the aggregation prone p53 R248Q mutation and treated intraperitoneally with 15 mg/kg of either INH-1R as a single therapeutic agent, a control scrambled peptide, or vehicle daily for 14 days (FIG. 9).

| SMILES | Cancer cells surviving (cell viability, MTS) ([1]; 10 μM, 2D culture) | Time serum concentration remained stable ([2]; 15 mg/kg IP) | Tmax ([2]; nude, mouse, serum, 15 mg/kg IP for three days, read-out: Time of peak serum concentration post injection) | Cmax ([2]; nude, mouse, serum, 15 mg/kg IP, 1 hour after injection, read-out: Serum peak concentration) | level at time molar at 2 h ([2]; nude, mouse, serum, 15 mg/kg IP, 2 hours, read-out: Serum concentration 2 hours post infusion) | Inhibition of p53 aggregation (Thioflavin T fluorescence over time) [3] | Ability to enter cells (intracellular localization) [4] | Re-localization of p53 from cytosol to nucleus (MCF-7 (WT p53)) | Recognition of p53 by PAb240 (misfolded p53) [5] | Total amount of p53 (OVCAR-3 cell lysates) | Cancer cells surviving (cell viability, MTS) ([1]; 10 µM) | Apoptosis (AnnexinV stain) [6] | Cell proliferation (Ki67 stain) [6] | Apoptosis and necrosis (Hoechst/PI/YO-PRO-1 stain) (OVCAR-3 cells [7]) | Cell size and granularity (FACS) (OVCAR-3 cells [8]) | Up-regulation of p53 target genes [9] | p53 target genes MDM2 and p21 in residual tumor tissue ([10]; 15 mg/kg IP daily for 14 days) | Xenograft mass reduction in weight ([10]; 15 mg/kg intraperitoneally daily for 14 days) |
| --- | --- | --- | --- | --- | --- | --- | --- | --- | --- | --- | --- | --- | --- | --- | --- | --- | --- | --- |
| CC[C@H](C)[C@H](NC(=O)[C@H](CCCNC(=N)N)NC(=O)[C@@H](NC(=O)[C@H](CC(C)C)NC(=O)[C@@H](NC(=O)[C@@H]1CCCN1C(=O)[C@H](CCCNC(=N)N)NC(=O)[C@H](CCCNC(=N)N)NC(=O)[C@H](CCCNC(=N)N)NC(=O)[C@H](CCCNC(=N)N)NC(=O)[C@H](CCCNC(=N)N)NC(=O)[C@H](CCCNC(=N)N)NC(=O)[C@H](CCCNC(=N)N)NC(=O)[C@H](CCCNC(=N)N)NC(=O)[C@H](CCCNC(=N)N)NC(=O)[C@@H](N)CCCNC(=N)N)[C@@H](C)CC)[C@@H](C)O)C(=O)N[C@H](C(=O)N[C@@H](CC(C)C)C(=O)N[C@@H](CCC(=O)O)C(=O)O)[C@@H](C)O [INH-1R CPP, RRRRRRRRRRPILTRITLE] | Dose dependent reduction of cell viability | up to 12 hours | 1 h | ~1200 nM | ~300 nM | – | – | – | – | – | – | – | – | – | – | – | – | – |
| CC[C@H](C)[C@H](NC(=O)[C@H](CCCNC(=N)N)NC(=O)[C@@H](NC(=O)[C@H](CC(C)C)NC(=O)[C@@H](NC(=O)[C@@H]1CCCN1C(=O)[C@H](CCCNC(=N)N)NC(=O)[C@H](CCCNC(=N)N)NC(=O)[C@H](CCCNC(=N)N)NC(=O)[C@H](CCCNC(=N)N)NC(=O)[C@H](CCCNC(=N)N)NC(=O)[C@H](CCCNC(=N)N)NC(=O)[C@H](CCCNC(=N)N)NC(=O)[C@H](CCCNC(=N)N)NC(=O)[C@H](CCCNC(=N)N)NC(=O)[C@@H](N)CCCNC(=N)N)[C@@H](C)CC)[C@@H](C)O)C(=O)N[C@H](C(=O)N[C@@H](CC(C)C)C(=O)N[C@@H](CCC(=O)O)C(=O)O)[C@@H](C)O [INH-1R] | – | – | – | – | – | delay the aggregation onset and lower the total amount of aggregates present, in a concentration dependent fashion; also recorded: delayed the onset of aggregation and lowered the amount of aggregates present at all concentrations tested | able to penetrate the cell membrane, but also to actually enter the nucleus and co-localize with its target, p53 | not observed | failed to be recognized by the antibody PAb240 | decreasing in a dose dependent manner | less than 50% | increase in apoptosis | decrease in cell proliferation | Apoptosis as well as necrosis were induced specifically | a decrease in cell size and increase in granularity | up-regulation of p53 target genes only in tumor cells bearing aggregation-prone mutations | pronounced p21 and MDM2 activation | 75% |
